Results reported in patent publication US7332489B2, “Methods and compositions of novel triazine compounds” (Reddy US Therapeutics, Inc., priority 2003, dated 2008).
Read-outs that look alike come from different tables or passages of the source.

Experiments:
cells = assay: Cytotoxicity/Lactate Dehydrogenase assay; assay type: cell-based; details: toxic or cause cell death; concentrations (uM) given
Method: An appropriate number of cells are plated in four 96-well plates, one plate for “day 0” and three plates for days 1-3. Cells are treated with at least one compound of the present invention in varying concentrations with and without the apoptosis inducer cisplatin (2 μM) (“+cis” or “-cis”). Unteated cells are also assayed with and without cisplatin. After transfection, the plates are incubated at 37° C. overnight.
An appropriate number of cells are plated in four 96-well plates, one plate for “day 0” and three plates for days 1-3. Cells are treated with at least one compound of the present invention in varying concentrations. The negative control cells have normal media conditions, a duplicate set of wells is treated with the composition in which the compound is provided, but there is no added compound and the positive control cells are treated with the apoptosis inducer cisplatin (2 μM). All of the cells are transfected with a vector having a promoter that is responsive to apoptosis conditions. When apoptosis occurs, the promoter is turned on and the lactic dehydrogenase gene is activated and the enzyme protein is made and active. Activity is easily detected with a color change. After transfection, the plates are incubated at 37° C. overnight.
About 8 mls of warmed alpha MEM LDH lysis buffer (2% Triton X100) and about 8 mls of culture media (1/2 dilution) are combined. Two 96-well v-bottom plates are prepared, one labeled “lysis” and one labeled “supernatant.” To lyse the cells, about 200 μl Alpha MEM lysis buffer (diluted 1/2) is added to one test plate from which the supernatant has been removed and added to the plate labeled supernatant. After mixing, about 200 μl of lysed cells are transferred to the lysis plate. Both the lysis and supernatant plates are centrifuged at about 1600 rpm for about 10 min. After centrifugation, about 100 μl of both the supernatant or lysate is transferred to corresponding 96-well flat-bottomed plates.
The assay for cytotoxicity uses the Cytotoxicity Detection Kit (LDH) from Roche Diagnostics Corp. (Indianapolis, Ind.). Using the directions provided, the dye solution is mixed and added each well of the lysate and supernatant plate and incubated for up to 20-25 min at 15-25° C. in the dark.

TNF-α induced IL-6 = assay: TNF-α-induced IL-6 production determined by IL-6 ELISA; assay type: cell-based; details: for activity at 10 µM: Homo sapiens, 24 h; for % IL6 production compare to TNF stimulation of IL6 (100%), @ 5 uM / % IL6 production compare to TNF stimulation of IL6 (100%), HAEC, IL6, @ 5 uM / % IL6 production compare to TNF stimulation of IL6 (100%), Compds tested @ 10 uM HAEC, IL6: HAEC; for % IL6 production compare to TNF stimulation of IL6 (100%), @ 5 uM: 5 uM compound, TNF stimulation = 100%; for % IL6 production compare to TNF stimulation of IL6 (100%), HAEC, IL6, @ 5 uM / % IL6 production compare to TNF stimulation of IL6 (100%), Compds tested @ 10 uM HAEC, IL6: TNF stimulated; for % IL6 production compare to TNF stimulation of IL6 (100%), HAEC, IL6, @ 5 uM: compound 5 uM (bracketed value); for % IL6 production compare to TNF stimulation of IL6 (100%), Compds tested @ 10 uM HAEC, IL6: compound 10 uM
In short: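 Human aortic endothelial cells grown to ≥90% confluence, then treated with compounds and stimuli in serum-free medium with 0.2% albumin. Secreted IL-6 in collected media measured by sandwich ELISA (2 ug/ml capture, 200 ng/ml biotinylated detection antibody, streptavidin-HRP), read at 450 nm.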

endothelial cells = assay: Toxicity to endothelial cells when AGE stimulated; assay type: cell-based
Method: In general, to determine if there is cytotoxic activity associated with a compound, cells of a particular type, in a growing stage or a quiescient stage, are treated with the compound of interest. Various parameters of cell death or cessation are used to measure the effects of the compound. For example, the amount of nucleic acid or protein synthesis can be measured or visual observation of the state of the cells, such as release from the substrate, can be used to measure the state of the cells.
All treatments, compound-added and controls were carried out in serum free media containing 0.2% albumin. Media from all conditions were collected and used for IL-6 ELISA.

[1] = Table 5, second part, column 1, class = % of control IL6 production, read-out: Inhibition of TNF-induced IL6, production
[2] = read-out: Inhibition of TNF-induced IL6 production
[3] = read-out: % IL6 production compare to TNF stimulation of IL6 (100%), Compds tested @ 10 uM HAEC, IL6
[4] = endothelial cells, AGE stimulated

COc1ccc(Nc2nc(NN3CCCCCC3)nc(N(C)C3CCNCC3)n2)cc1Cl
melting point: 81 °C

COc1ccc(Nc2nc(NC3CCCCCC3)nc(N3CCSCC3)n2)cc1Cl
melting point: 78 to 80 °C

CCN1CCCC1CNc1nc(Nc2cnc3ccccc3c2)nc(NC2CCCCCC2)n1 (centres unmarked) [Compound 3, N^2-cycloheptyl-N^4-[(1-ethyl-2-pyrrolidinyl)methyl]-N^6-(3-quinolinyl)-1,3,5-triazine-2,4,6-triamine]
Toxicity (cells): toxic | activity at 10 µM (TNF-α induced IL-6; [1]): 0 to 25%

COc1ccc(Nc2nc(NCCN(C)C)nc(NC3CCCCCC3)n2)cc1F [Compound 93, N^2-cycloheptyl-N^4-[2-(dimethylamino)ethyl]-N^6-(3-fluoro-4-methoxyphenyl)-1,3,5-triazine-2,4,6-triamine]
Toxicity (cells): toxic | activity at 10 µM (TNF-α induced IL-6; Table 5, first part, class = % of control IL6 production, read-out: Inhibition of TNF-induced IL6 production): 0 to 25% | activity at 10 µM (TNF-α induced IL-6; [1]): 0 to 25%

COc1ccc(Nc2nc(NC(C)C)nc(N(C)C3CCNCC3)n2)cc1Cl [Compound 107, N^2-(3-chloro-4-methoxy-phenyl)-N^4-isopropyl-N^6-methyl-N^6-piperidin-4-yl-1,3,5-triazine-2,4,6-triamine]
melting point: 129 °C | % IL6 production compare to TNF stimulation of IL6 (100%), @ 5 uM (TNF-α induced IL-6): 60 @ 5 uM % | activity at 10 µM (TNF-α induced IL-6; [2]): 50 to 75%

COc1ccc(Nc2nc(NCCCCCO)nc(N(C)C3CCNCC3)n2)cc1Cl [Compound 109, 5-[4-(3-chloro-4-methoxy-phenylamino)-6-(methyl-piperidin-4-yl-amino)-1,3,5-triazin-2-ylamino]-pentan-1-ol]
melting point: 101 °C | activity at 10 µM (TNF-α induced IL-6; [3]): 40% | activity at 10 µM (TNF-α induced IL-6; [2]): 25 to 50%

CCCCN(CCC)c1nc(Nc2ccc(OC)c(Cl)c2)nc(N(C)C2CCN(C)CC2)n1 [Compound 111, N-Butyl-N′-(3-chloro-4-methoxy-phenyl)-N″-methyl-N″-(1-methyl-piperidin-4-yl)-N-propyl-[1,3,5]triazine-2,4,6-triamine]
Toxicity (cells): Toxic by eye at 50and 10 uM noblunt/round justdeath | % IL6 production compare to TNF stimulation of IL6 (100%), @ 5 uM (TNF-α induced IL-6): 46% | activity at 10 µM (TNF-α induced IL-6; [3]): > 90% | activity at 10 µM (TNF-α induced IL-6; [2]): 75 to 100%

COc1ccc(Nc2nc(Cl)nc(OCC3CCCCC3)n2)cc1F [Compound 114, (4-Chloro-6-cyclohexylmethoxy-[1,3,5]triazin-2-yl)-(3-fluoro-4-methoxy-phenyl)-amine]
melting point: 98 °C

COc1ccc(Nc2nc(Nc3ccc(OC)c(F)c3)nc(OCC3CCCCC3)n2)cc1F [Compound 115, 6-Cyclohexylmethoxy-N,N′-bis-(3-fluoro-4-methoxy-phenyl)-1,3,5-triazine-2,4-diamine]
melting point: 181 °C

CCN1CCCC1CNc1nc(Nc2ccc(OC)c(F)c2)nc(OCC2CCCCC2)n1 (centres unmarked) [Compound 116, 6-Cyclohexylmethoxy-N-(1-ethyl-pyrrolidin-2-ylmethyl)-N′-(3-fluoro-4-methoxy-phenyl)-[1,3,5]triazine-2,4-diamine]
melting point: 59 °C

COc1ccc(Nc2nc(Cl)nc(OCC3CCCCC3)n2)cc1Cl [Compound 117, (4-Chloro-6-cyclohexylmethoxy-[1,3,5]triazin-2-yl)-(3-chloro-4-methoxy-phenyl)-amine]
melting point: 114 °C

COc1ccc(Nc2nc(Nc3ccc(OC)c(Cl)c3)nc(OCC3CCCCC3)n2)cc1Cl [Compound 118, N,N′-Bis-(3-chloro-4-methoxy-phenyl)-6-cyclohexylmethoxy-1,3,5-triazine-2,4-diamine]
melting point: 188 °C

COc1ccc(Nc2nc(Nc3ccc(OC)c(Cl)c3)nc(NC3CCCCCC3)n2)cc1Cl [Compound 122, N,N′-Bis-(3-chloro-4-methoxy-phenyl)-N″-cycloheptyl-[1,3,5]triazine-2,4,6-triamine]
melting point: 183 °C

COc1ccc(Nc2nc(Cl)nc(Cl)n2)cc1F [Compound 124, (4,6-Dichloro-[1,3,5]triazin-2-yl)-(3-fluoro-4-methoxy-phenyl)-amine]
melting point: 134 °C

COc1ccc(Nc2nc(Cl)nc(NCC3CCCCC3)n2)cc1F [Compound 125, 6-Chloro-N-cyclohexylmethyl-N′-(3-fluoro-4-methoxy-phenyl)-[1,3,5]triazine-2,4-diamine]
melting point: 156 °C

CCN1CCCC1CNc1nc(NCC2CCCCC2)nc(Nc2ccc(OC)c(F)c2)n1 (centres unmarked) [Compound 126, N-Cyclohexylmethyl-N′-(1-ethyl-pyrrolidin-2-ylmethyl)-N″-(3-fluoro-4-methoxy-phenyl)-[1,3,5]triazine-2,4,6-triamine]
melting point: 72 °C

COc1ccc(Nc2nc(NC3CCCCCC3)nc(NC3CCN(Cc4ccccc4)CC3)n2)cc1Cl [Compound 134, N-(1-Benzyl-piperidin-4-yl)-N′-(3-chloro-4-methoxy-phenyl)-N″-cycloheptyl-[1,3,5]triazine-2,4,6-dianmine]
Toxic (AGE-treated) (endothelial cells; [4]): toxic | % IL6 production compare to TNF stimulation of IL6 (100%), HAEC, IL6, @ 5 uM (TNF-α induced IL-6): 55% | % IL6 production compare to TNF stimulation of IL6 (100%), Compds tested @ 10 uM HAEC, IL6 (TNF-α induced IL-6): total cell death

COc1ccc(Nc2nc(NC3CCCCCC3)nc(NC3CCNCC3)n2)cc1Cl [Compound 135, N^2-(3-chloro-4-methoxy-phenyl)-N^4-cycloheptyl-N^6-piperidin-4-yl-1,3,5-triazine-2,4,6-triamine]
Toxic (AGE-treated) (endothelial cells; [4]): toxic | % IL6 production compare to TNF stimulation of IL6 (100%), HAEC, IL6, @ 5 uM (TNF-α induced IL-6): 60% | % IL6 production compare to TNF stimulation of IL6 (100%), Compds tested @ 10 uM HAEC, IL6 (TNF-α induced IL-6): total cell death

CCN1CCCC1CNc1nc(Nc2ccc(OC)c(Cl)c2)nc(NC2CCCCCC2)n1 (centres unmarked) [Compound 136, N^2-(3-chloro-4-methoxy-phenyl)-N^4-cycloheptyl-N^6-(1-ethyl-pyrrolidin-2-ylmethyl)-1,3,5-triazine-2,4,6-triamine]
Toxicity (cells): Nothing but celldebris at 3 uM verytoxic

CN1CCC(N(C)c2nc(Nc3ccc(O)c(Cl)c3)nc(NC3CCCCCC3)n2)CC1 [Compound 138, 2-Chloro-4-{4-cycloheptylamino-6-[methyl-(1-methyl-piperidin-4-yl)-amino]-[1,3,5]triazin-2-ylamino}-phenol]
Toxic (AGE-treated) (endothelial cells): toxic | % IL6 production compare to TNF stimulation of IL6 (100%), Compds tested @ 10 uM HAEC, IL6 (TNF-α induced IL-6): toxic

COc1ccc(Nc2nc(NC3CCCCCC3)nc(N(C)C3CCNCC3)n2)cc1Cl [Compound 146, N^2-(3-chloro-4-methoxy-phenyl)-N^4-cycloheptyl-N^6-methyl-N^6-piperidin-4-yl-1,3,5-triazine-2,4,6-triamine]
melting point: 114 to 116 °C

COc1ccc(Nc2nc(O)nc(NC3CCCCCC3)n2)cc1Cl [Compound 147, 4-(3-Chloro-4-methoxy-phenylamino)-6-cycloheptylamino-1,3,5-triazin-2-ol]
melting point: > 310 °C

COc1ccc(Nc2nc(NC3CCCCCC3)nc(OC3CCCN(C(C)=O)C3)n2)cc1Cl (centres unmarked) [Compound E20, 1-[3-{4-(3-chloro-4-methoxyanilino)-6-cycloheptylamino-1,3,5-triazine-2-yloxy}piperidino]-1-ethanone]
melting point: 138 to 140 °C

COc1ccc(Nc2nc(NC3CCCCCC3)nc(OC(C)C)n2)cc1Cl [Compound E21, N^2-(3-chloro-4-methoxyphenyl)-N^4-cycloheptyl-6-isopropoxy-1,3,5-triazine-2,4-diamine]
melting point: 136 to 138 °C

COc1ccc(Nc2nc(NC3CCCCCC3)nc(OCC3CCCN3)n2)cc1Cl (centres unmarked) [Compound E22, N^2-(3-chloro-4-methoxyphenyl)-N^4-cycloheptyl-6-(2-azolanylmethoxy)-1,3,5-triazine-2,4-diamine]
melting point: 84 to 86 °C

COc1ccc(Nc2nc(NC3CCCCCC3)nc(Oc3ccccc3F)n2)cc1Cl [Compound E28, N^2-(3-chloro-4-methoxyphenyl)-N^4-cycloheptyl-6-(2-fluorophenoxy)-1,3,5-triazine-4,2-diamine]
melting point: 98 to 100 °C
